Assay results reported in publication PMC8187944, “Discovery of Potent EGFR Inhibitors With 6-Arylureido-4-anilinoquinazoline Derivatives” (Frontiers in Pharmacology, 2021).

Assays:
MELK = MELK (Homo sapiens, UniProt Q14680); assay: Kinase spectrum assay (ADP-Glo); conditions: remaining enzyme activity at 1 μm compound
Description: (§1) The ADP-Glo™ kinase detection kit is a luminescence kinase detection approach that detects the amount of ADP produced by the kinase reaction. After ADP is converted into ATP, ATP can be used as the substrate of the luciferase-catalyzed reaction to generate an optical signal, which is positively correlated with kinase activity. […] The above-prepared systems were sealed and incubated at room temperature for 2 h, and 5 μl of ADP-GLO was added to terminate the kinase reaction. Then, the culture plate was sealed and incubated in a thermostatic oscillator for 40 min to fully consume the remaining ATP. The luciferase/luciferin reaction was adopted to determine the newly generated ATP level.

PDK1 = PDK1 (Homo sapiens, UniProt O15530); assay: Kinase spectrum assay (ADP-Glo); conditions: remaining enzyme activity at 1 μm compound
other protein kinases = assay: Kinase spectrum assay (ADP-Glo), text summary for kinases other than EGFR; conditions: all panel kinases other than EGFR, at 1.0 μm compound
Description: (§2) The above-prepared systems were sealed and incubated at room temperature for 2 h, and 5 μl of ADP-GLO was added to terminate the kinase reaction. Then, the culture plate was sealed and incubated in a thermostatic oscillator for 40 min to fully consume the remaining ATP. The luciferase/luciferin reaction was adopted to determine the newly generated ATP level.

IRAK4 = IRAK4 (Homo sapiens, UniProt Q9NWZ3); assay: Kinase spectrum assay (ADP-Glo); conditions: remaining enzyme activity at 1 μm compound
Chain of IRAK4 (Q9NWZ3 whole entry): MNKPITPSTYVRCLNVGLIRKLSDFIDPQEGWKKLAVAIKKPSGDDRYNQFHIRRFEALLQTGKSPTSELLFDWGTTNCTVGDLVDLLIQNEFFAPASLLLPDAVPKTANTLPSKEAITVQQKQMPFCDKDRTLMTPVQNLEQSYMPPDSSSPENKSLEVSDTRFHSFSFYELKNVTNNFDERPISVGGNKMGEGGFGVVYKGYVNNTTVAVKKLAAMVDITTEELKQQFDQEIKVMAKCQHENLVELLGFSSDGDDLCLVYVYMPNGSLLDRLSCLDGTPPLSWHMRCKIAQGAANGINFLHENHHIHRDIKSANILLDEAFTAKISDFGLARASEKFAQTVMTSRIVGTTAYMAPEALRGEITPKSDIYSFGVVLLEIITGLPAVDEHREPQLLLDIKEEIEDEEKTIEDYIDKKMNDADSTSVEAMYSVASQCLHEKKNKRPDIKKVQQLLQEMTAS
Description: as §1

ERK2 = ERK2 (Homo sapiens, UniProt P28482); assay: Kinase spectrum assay (ADP-Glo); conditions: remaining enzyme activity at 1 μm compound
Chain of ERK2 (P28482 whole entry): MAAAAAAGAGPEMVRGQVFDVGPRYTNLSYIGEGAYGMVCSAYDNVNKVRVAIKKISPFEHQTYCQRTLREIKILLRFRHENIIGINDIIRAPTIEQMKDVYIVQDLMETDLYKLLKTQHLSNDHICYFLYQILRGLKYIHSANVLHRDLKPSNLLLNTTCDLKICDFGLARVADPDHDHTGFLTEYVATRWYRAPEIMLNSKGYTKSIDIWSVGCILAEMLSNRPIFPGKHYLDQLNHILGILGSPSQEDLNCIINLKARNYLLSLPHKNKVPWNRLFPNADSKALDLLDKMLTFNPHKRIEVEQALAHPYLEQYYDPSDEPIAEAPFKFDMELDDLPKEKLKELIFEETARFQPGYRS
Description: as §1

Aqueous solubility = assay type: physicochemical; conditions: in words
FLT3 = FLT3 (Homo sapiens, UniProt P36888); assay: Kinase spectrum assay (ADP-Glo); conditions: remaining enzyme activity at 1 μm compound
Chain of FLT3 (P36888 27-993): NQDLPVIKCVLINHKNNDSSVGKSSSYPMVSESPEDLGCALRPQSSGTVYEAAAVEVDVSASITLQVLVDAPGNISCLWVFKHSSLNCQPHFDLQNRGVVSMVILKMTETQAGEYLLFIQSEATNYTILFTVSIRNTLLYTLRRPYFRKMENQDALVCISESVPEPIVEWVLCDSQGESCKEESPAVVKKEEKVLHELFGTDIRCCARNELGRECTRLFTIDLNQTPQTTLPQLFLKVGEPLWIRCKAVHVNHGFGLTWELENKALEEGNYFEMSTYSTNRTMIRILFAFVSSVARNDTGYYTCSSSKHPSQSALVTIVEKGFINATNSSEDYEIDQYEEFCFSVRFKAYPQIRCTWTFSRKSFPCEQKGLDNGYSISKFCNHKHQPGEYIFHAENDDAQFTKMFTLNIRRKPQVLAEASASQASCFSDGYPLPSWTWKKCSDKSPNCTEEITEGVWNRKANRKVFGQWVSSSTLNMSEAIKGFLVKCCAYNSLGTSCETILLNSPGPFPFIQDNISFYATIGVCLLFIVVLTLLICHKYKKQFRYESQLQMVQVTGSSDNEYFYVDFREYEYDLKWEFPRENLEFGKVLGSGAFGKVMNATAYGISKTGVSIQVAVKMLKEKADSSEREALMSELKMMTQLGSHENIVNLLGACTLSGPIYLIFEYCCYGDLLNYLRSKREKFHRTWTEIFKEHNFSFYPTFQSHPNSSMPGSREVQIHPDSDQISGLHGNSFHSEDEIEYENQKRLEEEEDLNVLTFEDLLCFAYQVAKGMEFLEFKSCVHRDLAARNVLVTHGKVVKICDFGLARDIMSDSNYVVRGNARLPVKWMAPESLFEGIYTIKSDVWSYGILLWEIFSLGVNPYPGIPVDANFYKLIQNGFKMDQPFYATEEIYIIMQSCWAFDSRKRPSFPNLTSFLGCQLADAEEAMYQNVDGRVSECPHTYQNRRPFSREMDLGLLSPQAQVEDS
Description: as §1

FAK = FAK (Homo sapiens, UniProt Q05397); assay: Kinase spectrum assay (ADP-Glo); conditions: remaining enzyme activity at 1 μm compound
Chain of FAK (Q05397 whole entry): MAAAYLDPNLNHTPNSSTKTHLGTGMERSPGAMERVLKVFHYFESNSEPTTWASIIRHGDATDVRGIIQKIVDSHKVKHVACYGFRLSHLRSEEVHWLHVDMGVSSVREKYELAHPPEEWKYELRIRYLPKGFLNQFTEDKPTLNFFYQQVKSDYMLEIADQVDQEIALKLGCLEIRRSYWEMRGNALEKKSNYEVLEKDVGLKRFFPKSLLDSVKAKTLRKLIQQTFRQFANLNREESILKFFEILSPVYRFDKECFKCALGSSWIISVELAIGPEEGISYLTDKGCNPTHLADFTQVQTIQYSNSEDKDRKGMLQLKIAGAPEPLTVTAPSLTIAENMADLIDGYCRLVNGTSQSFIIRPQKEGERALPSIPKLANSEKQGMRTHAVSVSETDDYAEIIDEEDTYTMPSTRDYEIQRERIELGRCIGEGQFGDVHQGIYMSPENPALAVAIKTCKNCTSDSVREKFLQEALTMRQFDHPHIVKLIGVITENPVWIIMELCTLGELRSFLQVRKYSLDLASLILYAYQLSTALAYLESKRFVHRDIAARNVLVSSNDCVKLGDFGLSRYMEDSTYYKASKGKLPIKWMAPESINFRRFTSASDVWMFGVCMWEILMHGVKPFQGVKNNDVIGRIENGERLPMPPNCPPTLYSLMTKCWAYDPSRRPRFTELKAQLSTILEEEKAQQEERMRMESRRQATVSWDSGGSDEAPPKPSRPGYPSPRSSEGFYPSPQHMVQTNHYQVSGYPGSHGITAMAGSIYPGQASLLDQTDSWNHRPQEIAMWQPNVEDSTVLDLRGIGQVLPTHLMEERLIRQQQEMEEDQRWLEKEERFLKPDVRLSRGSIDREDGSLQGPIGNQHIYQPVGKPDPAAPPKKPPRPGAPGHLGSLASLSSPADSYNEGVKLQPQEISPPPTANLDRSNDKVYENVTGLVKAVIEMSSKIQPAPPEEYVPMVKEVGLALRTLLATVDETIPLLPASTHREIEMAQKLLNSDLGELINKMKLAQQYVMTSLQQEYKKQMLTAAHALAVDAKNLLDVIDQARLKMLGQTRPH
Description: as §2

TRKA = TRKA (Homo sapiens, UniProt P04629); assay: Kinase spectrum assay (ADP-Glo); conditions: remaining enzyme activity at 1 μm compound
Chain of TRKA (P04629 33-796): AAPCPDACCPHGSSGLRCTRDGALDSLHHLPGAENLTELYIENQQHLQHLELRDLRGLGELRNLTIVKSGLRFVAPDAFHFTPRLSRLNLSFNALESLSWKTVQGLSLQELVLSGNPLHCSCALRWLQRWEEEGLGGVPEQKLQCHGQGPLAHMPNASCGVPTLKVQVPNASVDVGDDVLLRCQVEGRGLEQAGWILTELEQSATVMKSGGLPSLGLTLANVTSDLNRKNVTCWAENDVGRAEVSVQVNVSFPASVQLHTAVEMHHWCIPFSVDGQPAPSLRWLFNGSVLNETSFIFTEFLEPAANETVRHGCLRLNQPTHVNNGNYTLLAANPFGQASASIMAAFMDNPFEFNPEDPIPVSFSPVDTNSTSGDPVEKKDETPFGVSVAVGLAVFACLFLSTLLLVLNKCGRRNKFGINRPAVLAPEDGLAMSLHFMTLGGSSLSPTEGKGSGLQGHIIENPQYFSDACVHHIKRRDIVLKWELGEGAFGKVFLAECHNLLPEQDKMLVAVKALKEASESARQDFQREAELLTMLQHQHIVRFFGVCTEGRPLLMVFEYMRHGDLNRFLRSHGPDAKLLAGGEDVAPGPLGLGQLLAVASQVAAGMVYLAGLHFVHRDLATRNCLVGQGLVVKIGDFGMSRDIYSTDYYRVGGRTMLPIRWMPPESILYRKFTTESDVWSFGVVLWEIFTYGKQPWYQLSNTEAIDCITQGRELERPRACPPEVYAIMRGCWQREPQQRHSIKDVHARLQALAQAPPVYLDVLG
Description: as §1

JAK3 = JAK3 (Homo sapiens, UniProt P52333); assay: Kinase spectrum assay (ADP-Glo); conditions: remaining enzyme activity at 1 μm compound
Description: as §1

Chain of MELK (Q14680 whole entry): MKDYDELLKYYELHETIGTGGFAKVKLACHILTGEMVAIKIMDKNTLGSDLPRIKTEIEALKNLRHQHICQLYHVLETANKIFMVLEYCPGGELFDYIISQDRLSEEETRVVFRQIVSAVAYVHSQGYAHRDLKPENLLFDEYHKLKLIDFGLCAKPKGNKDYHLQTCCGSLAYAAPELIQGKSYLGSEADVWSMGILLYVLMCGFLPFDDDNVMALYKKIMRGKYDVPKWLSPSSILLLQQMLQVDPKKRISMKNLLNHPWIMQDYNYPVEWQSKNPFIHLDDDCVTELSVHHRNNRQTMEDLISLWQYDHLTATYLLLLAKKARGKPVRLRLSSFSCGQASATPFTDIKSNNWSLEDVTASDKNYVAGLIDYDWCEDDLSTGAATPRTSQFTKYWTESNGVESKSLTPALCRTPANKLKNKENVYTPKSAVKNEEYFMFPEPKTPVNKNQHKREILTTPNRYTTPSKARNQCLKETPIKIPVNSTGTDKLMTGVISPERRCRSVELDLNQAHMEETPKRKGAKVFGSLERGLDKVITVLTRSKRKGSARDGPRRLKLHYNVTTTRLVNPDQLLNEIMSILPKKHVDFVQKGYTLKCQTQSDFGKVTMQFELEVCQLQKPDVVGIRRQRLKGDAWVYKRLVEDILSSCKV
Chain of PDK1 (O15530 whole entry): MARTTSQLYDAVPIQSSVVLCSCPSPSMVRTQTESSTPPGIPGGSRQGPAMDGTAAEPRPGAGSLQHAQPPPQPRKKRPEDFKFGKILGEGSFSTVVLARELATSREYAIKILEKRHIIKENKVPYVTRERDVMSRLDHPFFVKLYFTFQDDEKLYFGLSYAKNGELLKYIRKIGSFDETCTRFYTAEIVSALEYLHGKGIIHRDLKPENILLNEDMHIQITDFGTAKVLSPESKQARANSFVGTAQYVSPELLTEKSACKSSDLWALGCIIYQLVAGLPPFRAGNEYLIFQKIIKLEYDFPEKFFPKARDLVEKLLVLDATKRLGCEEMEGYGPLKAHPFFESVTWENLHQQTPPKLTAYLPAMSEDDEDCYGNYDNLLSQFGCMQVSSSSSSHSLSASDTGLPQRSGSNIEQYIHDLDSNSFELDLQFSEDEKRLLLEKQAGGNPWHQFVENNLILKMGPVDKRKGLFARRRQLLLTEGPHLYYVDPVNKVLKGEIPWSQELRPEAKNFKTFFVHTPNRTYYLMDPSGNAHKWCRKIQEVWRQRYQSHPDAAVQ

- Enzyme activity % MELK (MELK): 78.83 ± 6.55%
- melting point: 268 to 268.9 °C
- Enzyme activity % PDK1 (PDK1): 74.18 ± 0.62%
- enzyme activity of the other protein kinases (other protein kinases): > 50%
- Enzyme activity % IRAK4 (IRAK4): 86.33 ± 0.56%
- Enzyme activity % ERK2 (ERK2): 97.31 ± 11.84%
- aqueous solubility (Aqueous solubility): soluble
- Enzyme activity % FLT3 (FLT3): 92.18 ± 15.36%
- Enzyme activity % FAK (FAK): 81.70 ± 2.75%
- Enzyme activity % TRKA (TRKA): 83.52 ± 3.13%
- Enzyme activity % JAK3 (JAK3): 82.49 ± 1.82%
Structure (SMILES): O=C(Nc1ccc(Cl)c(C(F)(F)F)c1)Nc1ccc2ncnc(Nc3cccc(Br)c3)c2c1 [Compound 7i]
